{
  "source": "patent US10357447B2",
  "about": "“Cosmetic compositions comprising sclareolide” (Symrise AG, priority 2015, dated 2019)",
  "key": {"AhR": {"target": "T1, AhR (Homo sapiens, UniProt P35869)", "T1 construct": "endogenous in cells; host or cells: XRE-HepG2 (HepG2 carrying an XRE-driven luciferase reporter)", "T1 sequence (P35869 11-848)": "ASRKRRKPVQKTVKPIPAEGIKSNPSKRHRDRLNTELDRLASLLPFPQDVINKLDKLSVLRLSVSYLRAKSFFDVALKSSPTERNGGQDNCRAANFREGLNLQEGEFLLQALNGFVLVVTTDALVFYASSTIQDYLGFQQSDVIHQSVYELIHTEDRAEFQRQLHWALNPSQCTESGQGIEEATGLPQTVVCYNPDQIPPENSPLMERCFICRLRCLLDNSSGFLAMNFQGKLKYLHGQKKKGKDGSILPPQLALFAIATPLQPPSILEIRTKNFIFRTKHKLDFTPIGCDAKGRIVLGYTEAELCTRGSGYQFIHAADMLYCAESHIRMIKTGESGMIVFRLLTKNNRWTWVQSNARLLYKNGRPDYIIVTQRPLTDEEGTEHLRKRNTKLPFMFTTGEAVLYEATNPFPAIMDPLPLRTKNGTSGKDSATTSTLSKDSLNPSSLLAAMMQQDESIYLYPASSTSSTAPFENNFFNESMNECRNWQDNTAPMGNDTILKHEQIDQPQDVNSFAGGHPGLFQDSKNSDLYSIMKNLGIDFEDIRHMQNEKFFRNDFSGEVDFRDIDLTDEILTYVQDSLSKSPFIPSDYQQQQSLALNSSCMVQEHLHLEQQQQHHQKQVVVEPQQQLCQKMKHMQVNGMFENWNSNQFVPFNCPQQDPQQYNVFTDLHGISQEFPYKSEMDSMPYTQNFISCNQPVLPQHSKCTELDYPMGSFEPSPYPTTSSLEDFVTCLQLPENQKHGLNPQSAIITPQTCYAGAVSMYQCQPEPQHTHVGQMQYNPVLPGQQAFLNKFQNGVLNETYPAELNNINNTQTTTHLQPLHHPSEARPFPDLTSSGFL", "assay": "AhR antagonism, luciferase reporter gene assay in XRE-HepG2 cells", "assay_type": "cell-based", "conditions": "16 h or 24 h", "experimental": "For reporter gene analyses, 1×10^5 XRE-HepG2 cells/well were seeded in 12-well plates and cultured overnight. Cells were treated for 16 h or 24 h with the indicated substances.\nCell lysates were prepared, and luciferase activities were determined using the luciferase assay system. Protein concentrations were determined by using the BC Assay protein quantification kit. Luciferase activities were normalized against the protein concentration of each probe. Each sample was analyzed in triplicate."}, "POMC gene expression": {"test_system": "POMC gene expression", "assay": "Particle-induced POMC gene expression in human epidermal keratinocytes (qRT-PCR)", "assay_type": "cell-based", "conditions": "for POMC 6 h gene expression: control = 1, particles alone 1.5 ± 0.031", "experimental": "(§1) Gene expression was analyzed via qRT-PCR.\n(§2) Ginger root CO2 extract has been dissolved in DMSO and diluted in medium. […] Gene expression was analyzed via qRT-PCR. […] Table 9 compiles the results for ginger root CO2 extract altered POMC and IL-6 gene expression\n(§3) Purple coneflower pressed juice has been dissolved directly in medium. […] Gene expression was analyzed via qRT-PCR. […] Table 10 compiles the results for purple coneflower pressed juice altered POMC and IL-6 gene expression\n(§4) A mixture of sclareloide and ginger root CO2 extract has been dissolved directly in medium. […] Gene expression was analyzed via qRT-PCR. […] Table 11 compiles the results for […] altered POMC and IL-6 gene expression"}, "POMC protein level": {"test_system": "POMC protein level", "assay": "Particle-induced POMC protein release from HaCaT cells (ELISA of supernatant)", "assay_type": "cell-based", "experimental": "II) HaCaT cells are seeded into a 96-well plate with 0.3×10^4 cells/well. After incubation over night the test compound (10 μM Sclareolide) is added to the cells and the plate is incubated for two more hours. Then diesel exhaust particles (SRM 1650b) are added to a final concentration of 1.5 μg/cm2 and the plate incubated for 24 hours. The supernatant is transferred into an ELISA plate (Cusabio, CSB-E09307 h) and the POMC protein level quantified using ELISA technique performed according to the manufacturer's instructions."}, "MMP1 gene expression": {"test_system": "MMP1 gene expression", "assay": "Particle-induced MMP1 gene expression in human epidermal keratinocytes (qRT-PCR)", "assay_type": "cell-based", "conditions": "for MMP-1 24 h gene expression / MMP1 24 h gene expression: SRM1650b; for MMP-1 24 h gene expression: untreated = 1, particles alone 1.57 ± 0.05; for MMP1 24 h gene expression: control = 1, particles alone 1.3 ± 0.03", "experimental": "as §1"}, "IL-6 gene expression": {"test_system": "IL-6 gene expression", "assay": "Particle-induced IL-6 gene expression in human epidermal keratinocytes (qRT-PCR)", "assay_type": "cell-based", "conditions": "for IL-6 6 h gene expression: SRM1650b", "experimental": "as §1, §2, §3, §4"}, "CYP1A1 gene expression": {"test_system": "CYP1A1 gene expression", "assay": "Particle-induced CYP1A1 gene expression in human epidermal keratinocytes (qRT-PCR)", "conditions": "for CYP1A1 Induction mean ± SE: NHEK adult; for CYP1A1 Induction mean ± SE / CYP1A1 gene expression, Induction mean ± SE: 10 μM; for CYP1A1 gene expression, Induction mean ± SE: indoor particles Huber990 1.5 μg/cm2", "procedure": "Adult human epidermal keratinocytes were cultured in keratinocyte medium without BPE and without EGF for 24 h prior to addition of model particles (see table 1.1). The model particles were suspended in phosphate buffered saline and were sonicated for 1 min and then directly added to the keratinocytes at 1.5 μg/cm^2. […] Solutions containing the compound with maximal 0.1% DMSO were applied 2 h prior to treatment with the model particles. Gene expression was analyzed via qRT-PCR."}},
  "data": [
    {"compound": "CC1(C)CCC[C@]2(C)C3CC(=O)O[C@]3(C)CC[C@@H]12", "note": "(stereo partly drawn) [Sclareolide, (3aR,5aS,9aS,9bR)-decahydro-3a,6,6,9a-tetramethyl-naphtha[2,1-b]furan-2(1H)-one]", "values": [
      {"measurement": "Relative luciferase activity (fold of DMSO control)", "setting": "AhR; 10 μM + 1 μM BaP, DMSO = 1.00, BaP alone 20.78 ± 1.04", "result": "12.28 ± 4.90 fold of DMSO control"},
      {"measurement": "Relative luciferase activity (fold of DMSO control)", "setting": "AhR; 20 μM + 1 μM BaP, DMSO = 1.00, BaP alone 20.78 ± 1.04", "result": "9.60 ± 1.32 fold of DMSO control"},
      {"measurement": "Relative luciferase activity (fold of DMSO control)", "setting": "AhR; 20 μM alone, no BaP, DMSO = 1.00", "result": "1.06 ± 0.45 fold of DMSO control"},
      {"measurement": "particle induced POMC gene expression (result in words)", "setting": "POMC gene expression", "result": "capable to inhibit"},
      {"measurement": "POMC 24 h gene expression", "setting": "POMC gene expression; 10 μM, SRM1650b, untreated = 1, particles alone 1.50 ± 0.06", "result": "1.03 ± 0.07"},
      {"measurement": "POMC 24 h gene expression", "setting": "POMC gene expression; 10 μM, SRM2975, untreated = 1, particles alone 1.30 ± 0.00", "result": "0.73 ± 0.06"},
      {"measurement": "POMC normalized to control", "setting": "POMC protein level; 10 μM Sclareolide added 2 h before SRM 1650b 1.5 μg/cm2, 24 hours, control = 1.00, particles alone 1.43 ± 0.082", "result": "1.22 ± 0.009"},
      {"measurement": "particle induced POMC release (result in words)", "setting": "POMC protein level; SRM 1650b", "result": "capable to inhibit"},
      {"measurement": "particle induced MMP1 gene expression (result in words)", "setting": "MMP1 gene expression", "result": "capable to inhibit"},
      {"measurement": "MMP-1 24 h gene expression", "setting": "MMP1 gene expression; 0.00001%", "result": "1.41 ± 0.04"},
      {"measurement": "MMP-1 24 h gene expression", "setting": "MMP1 gene expression; 0.00005%", "result": "1.29 ± 0.02"},
      {"measurement": "particle induced IL-6 gene expression (result in words)", "setting": "IL-6 gene expression", "result": "capable to inhibit"},
      {"measurement": "IL-6 6 h gene expression", "setting": "IL-6 gene expression; 0.00001%, untreated = 1, particles alone 1.90 ± 0.04", "result": "1.53 ± 0.04"},
      {"measurement": "IL-6 6 h gene expression", "setting": "IL-6 gene expression; 0.00005%, untreated = 1, particles alone 1.90 ± 0.04", "result": "1.42 ± 0.02"}
    ]},
    {"compound": "E/Z-2-benzylindene-5,6-dimethoxy-3,3-dimethylindan-1-one [BDDI]", "values": [
      {"measurement": "particle induced POMC gene expression (result in words)", "setting": "POMC gene expression", "result": "capable to inhibit"},
      {"measurement": "POMC 6 h gene expression", "setting": "POMC gene expression; 1 μM, SRM1650b", "result": "0.9 ± 0.018"},
      {"measurement": "POMC 6 h gene expression", "setting": "POMC gene expression; 2.5 μM, SRM1650b", "result": "1.1 ± 0.02"},
      {"measurement": "POMC 6 h gene expression", "setting": "POMC gene expression; 10 μM, SRM1650b", "result": "0.9 ± 0.001"},
      {"measurement": "CYP1A1 Induction mean ± SE", "setting": "CYP1A1 gene expression; SRM1650 1.5 μg/cm2, 6 h, untreated = 1, particles alone 2.90 ± 0.12", "result": "0.02 ± 0.00"},
      {"measurement": "CYP1A1 Induction mean ± SE", "setting": "CYP1A1 gene expression; SRM1650 1.5 μg/cm2, 6 h, untreated = 1, particles alone 5.33 ± 0.07", "result": "1.83 ± 0.03"},
      {"measurement": "CYP1A1 Induction mean ± SE", "setting": "CYP1A1 gene expression; SRM1650 1.5 μg/cm2, 24 h, untreated = 1, particles alone 16.53 ± 0.98", "result": "4.17 ± 0.09"},
      {"measurement": "CYP1A1 Induction mean ± SE", "setting": "CYP1A1 gene expression; SRM1650 1.5 μg/cm2, 24 h, untreated = 1, particles alone 23.23 ± 0.64", "result": "8.77 ± 0.09"},
      {"measurement": "CYP1A1 Induction mean ± SE", "setting": "CYP1A1 gene expression; SRM2975 1.5 μg/cm2, 6 h, untreated = 1, particles alone 1.03 ± 0.03 (n.s.)", "result": "0.20 ± 0.00"},
      {"measurement": "CYP1A1 Induction mean ± SE", "setting": "CYP1A1 gene expression; SRM2975 1.5 μg/cm2, 6 h, untreated = 1, particles alone 2.07 ± 0.07", "result": "0.05 ± 0.0003"},
      {"measurement": "CYP1A1 Induction mean ± SE", "setting": "CYP1A1 gene expression; SRM2975 1.5 μg/cm2, 24 h, untreated = 1, particles alone 4.90 ± 0.17", "result": "0.01 ± 0.00"},
      {"measurement": "CYP1A1 Induction mean ± SE", "setting": "CYP1A1 gene expression; SRM2975 1.5 μg/cm2, 24 h, untreated = 1, particles alone 5.10 ± 0.06", "result": "0.60 ± 0.06"},
      {"measurement": "particle induced Cyp1A1 gene expression (result in words)", "setting": "CYP1A1 gene expression; indoor as well as outdoor model particles", "result": "capable to inhibit"},
      {"measurement": "CYP1A1 gene expression, Induction mean ± SE", "setting": "CYP1A1 gene expression; 6 h, untreated = 1, particles alone 2.70 ± 0.00", "result": "0.05 ± 0.00"},
      {"measurement": "CYP1A1 gene expression, Induction mean ± SE", "setting": "CYP1A1 gene expression; 24 h, untreated = 1, particles alone 2.90 ± 0.00", "result": "0.20 ± 0.00"},
      {"measurement": "particle induced MMP1 gene expression (result in words)", "setting": "MMP1 gene expression", "result": "capable to inhibit"},
      {"measurement": "MMP1 24 h gene expression", "setting": "MMP1 gene expression; 1 μM", "result": "0.7 ± 0.014"},
      {"measurement": "MMP1 24 h gene expression", "setting": "MMP1 gene expression; 2.5 μM", "result": "0.8 ± 0.016"},
      {"measurement": "MMP1 24 h gene expression", "setting": "MMP1 gene expression; 10 μM", "result": "0.5 ± 0.022"},
      {"measurement": "particle induced IL-6 gene expression (result in words)", "setting": "IL-6 gene expression", "result": "capable to inhibit"},
      {"measurement": "IL-6 6 h gene expression", "setting": "IL-6 gene expression; 1 μM, control = 1, particles alone 1.4 ± 0.041", "result": "0.9 ± 0.067"},
      {"measurement": "IL-6 6 h gene expression", "setting": "IL-6 gene expression; 2.5 μM, control = 1, particles alone 1.4 ± 0.041", "result": "0.6 ± 0.006"},
      {"measurement": "IL-6 6 h gene expression", "setting": "IL-6 gene expression; 10 μM, control = 1, particles alone 1.4 ± 0.041", "result": "0.5 ± 0.01"}
    ]}
  ]
}
